These results are taken from PubChem BioAssay (NCI).

Some test systems named below: NCI/ADR-RES ovarian; OVCAR-3 ovarian; T-47D breast; OVCAR-8 ovarian; HL-60(TB) leukemia; LOX IMVI melanoma; OVCAR-5 ovarian; SF-268 CNS; SN12C renal; KM12 colon; UACC-62 melanoma; OVCAR-4 ovarian; IGROV1 ovarian.
What all share (assay): inhibition of tumour cell growth, NCI panel, 48 h

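All cell lines were grown in 96-well plates and treated with compound for 48 hours. Definition used: TGI = concentration required for complete inhibition of growth.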

In the case of `Cc1nc(N)c(N2CCN(Cc3ccccc3)CC2)c(=O)[nH]1`, the TGI in the test with NCI/ADR-RES ovarian, in the test with OVCAR-3 ovarian, in the test on T-47D breast, in the test with OVCAR-8 ovarian, with HL-60(TB) leukemia and with LOX IMVI melanoma was over 100 µM each time. The TGI with OVCAR-5 ovarian, with SF-268 CNS, with SN12C renal and in the test with KM12 colon was over 100 µM in each case.

With `O=C(Nc1nncs1)NS(=O)(=O)n1cnc2ccccc21`, the TGI in the test on NCI/ADR-RES ovarian, with UACC-62 melanoma, in the test on OVCAR-3 ovarian, in the test with T-47D breast, in the test with OVCAR-8 ovarian and with HL-60(TB) leukemia was over 100 µM throughout. The TGI in the test on OVCAR-4 ovarian, in the test with IGROV1 ovarian, with OVCAR-5 ovarian, with SF-268 CNS, in the test on SN12C renal and in the test with KM12 colon was over 100 µM in each case.

For `Cc1cc(N(CCC#N)CCC#N)ccc1/C(N=Nc1ccccc1)=N\NC(=O)c1ccccc1`, the TGI in the test on NCI/ADR-RES ovarian is 75.5 µM; in the test on UACC-62 melanoma, 45.5 µM; in the test with OVCAR-3 ovarian, over 100 µM; in the test with T-47D breast, 49 µM; in the test with OVCAR-8 ovarian, 90.7 µM; in the test on HL-60(TB) leukemia, over 100 µM. Moreover, the TGI in the test with OVCAR-4 ovarian, in the test with IGROV1 ovarian, in the test on OVCAR-5 ovarian, in the test on SF-268 CNS, in the test on SN12C renal and in the test with KM12 colon was over 100 µM in each case.

Consider `Cc1ccc(S(=O)C[C@@]2(C(F)F)NC(=O)NC2=O)cc1` (some centres not stated), for which the TGI in the test with NCI/ADR-RES ovarian, in the test on UACC-62 melanoma, with OVCAR-3 ovarian, in the test with T-47D breast, in the test with OVCAR-8 ovarian and with HL-60(TB) leukemia was over 100 µM each time. Further, the TGI with OVCAR-4 ovarian, with IGROV1 ovarian, in the test with LOX IMVI melanoma, in the test on OVCAR-5 ovarian, in the test with SF-268 CNS and with KM12 colon was over 100 µM in each case.

In the case of `COC(=O)c1cc(-c2ccc(-c3ccc(O)cc3)cc2)cc(-c2ccc(-c3ccc(O)cc3)cc2)c1`, the TGI in the test with NCI/ADR-RES ovarian came out at 30.1 µM; in the test on OVCAR-3 ovarian, 25.6 µM; in the test on T-47D breast, 33.8 µM; in the test on OVCAR-4 ovarian, 35.9 µM; with IGROV1 ovarian it was 21.1 µM; in the test with LOX IMVI melanoma it was 18.4 µM. Also, the TGI is 29.1 µM in the test on OVCAR-5 ovarian, 17.8 µM in the test with SF-268 CNS, 27 µM with SN12C renal and 6.82 µM in the test on KM12 colon.

On to `c1cc2cc(c1)CN1CCNCCN(CCNCC1)Cc1cccc(c1)CN1CCNCCN(CCNCC1)C2`, for which the TGI in the test on NCI/ADR-RES ovarian, with UACC-62 melanoma, with OVCAR-3 ovarian, with T-47D breast, with OVCAR-8 ovarian and with OVCAR-4 ovarian was over 100 µM each time. The TGI in the test on IGROV1 ovarian, in the test on LOX IMVI melanoma, in the test with OVCAR-5 ovarian, with SF-268 CNS, in the test on SN12C renal and with KM12 colon was over 100 µM throughout.

Regarding `N#CC(C#N)=Cc1ccc(C=C2SC3=C(SCCS3)S2)s1`, the TGI in the test with NCI/ADR-RES ovarian is 42.8 µM; in the test with UACC-62 melanoma, over 100 µM; with OVCAR-3 ovarian, over 100 µM; in the test with T-47D breast, over 100 µM; in the test with OVCAR-8 ovarian, over 100 µM; in the test on HL-60(TB) leukemia, 7.03 µM. The TGI was over 100 µM with OVCAR-4 ovarian; over 100 µM with IGROV1 ovarian; 35.2 µM in the test on OVCAR-5 ovarian; over 100 µM in the test with SF-268 CNS; over 100 µM in the test on SN12C renal; over 100 µM in the test with KM12 colon.

Turning to `C[N+](C)(C)C1(C(=O)[O-])CC1`, the TGI with NCI/ADR-RES ovarian, in the test on OVCAR-3 ovarian, in the test on T-47D breast, with OVCAR-8 ovarian, in the test with HL-60(TB) leukemia and in the test with OVCAR-4 ovarian was over 100 µM throughout. Also, the TGI in the test with IGROV1 ovarian, with LOX IMVI melanoma, in the test with OVCAR-5 ovarian, in the test on SF-268 CNS and in the test on SN12C renal was over 100 µM each time.

With `COc1ccc(C(=O)/C=C/c2ccc(OCC(=O)O)cc2)cc1`, the TGI in the test with NCI/ADR-RES ovarian, in the test on UACC-62 melanoma, with OVCAR-3 ovarian, with T-47D breast, with OVCAR-8 ovarian and in the test on HL-60(TB) leukemia was over 100 µM in each case. In addition, the TGI with IGROV1 ovarian, with LOX IMVI melanoma, in the test with OVCAR-5 ovarian, in the test with SF-268 CNS, in the test with SN12C renal and with KM12 colon was over 100 µM each time.

In the case of `C[C@@H]1OC(=O)C[C@H]2CC(=O)N(CCC3CN(S(=O)(=O)C(F)(F)F)c4ccc(Cc5ccc6c(c5)C(CCN5C[C@H]7[C@@H](CC(=O)O[C@H]7C)CC5=O)CN6S(=O)(=O)C(F)(F)F)cc43)C[C@@H]21` (some centres not stated), the TGI in the test on NCI/ADR-RES ovarian, in the test on UACC-62 melanoma, in the test on OVCAR-3 ovarian, in the test on T-47D breast, in the test with OVCAR-8 ovarian and in the test on OVCAR-4 ovarian was over 100 µM in each case. Besides, the TGI in the test with LOX IMVI melanoma, in the test with OVCAR-5 ovarian, in the test with SF-268 CNS and with KM12 colon was over 100 µM in each case.

Regarding `COc1ccc(/C=C(\C(=O)OCC(C)C)c2ccc(OC)c(OC)c2)cc1OC`, the TGI in the test with NCI/ADR-RES ovarian, with UACC-62 melanoma, in the test on OVCAR-3 ovarian, in the test on T-47D breast, in the test on OVCAR-8 ovarian and in the test on HL-60(TB) leukemia was over 100 µM throughout. Moreover, the TGI in the test on OVCAR-4 ovarian, with IGROV1 ovarian, with LOX IMVI melanoma, in the test on OVCAR-5 ovarian, in the test on SF-268 CNS and in the test on SN12C renal was over 100 µM throughout.

For `CCCC(=O)/C=C/S/C=C/C(=O)CCC`, the TGI is 9.05 µM in the test on NCI/ADR-RES ovarian; 29.8 µM with UACC-62 melanoma; 18.7 µM in the test on OVCAR-3 ovarian; over 100 µM in the test on T-47D breast; 5.46 µM with OVCAR-8 ovarian; 43.2 µM with OVCAR-4 ovarian. Further, the TGI with IGROV1 ovarian was 47.9 µM; in the test with LOX IMVI melanoma, 6.27 µM; with OVCAR-5 ovarian, 9.69 µM; in the test with SF-268 CNS, over 100 µM; in the test with SN12C renal, 28 µM; in the test with KM12 colon it was 37.3 µM.
